In EP0973516B1, “USE OF HALO AND/OR NITRO-SUBSTITUTED FLAVONOIDS AS ANXYOLITICS” (University of Strathclyde, priority 1997, dated 1998):

Biological target: Benzodiazepine receptors (BDZ-Rs)
Experiment: Inhibition of 3H-flunitrazepam (3H-FNZ) binding to washed rat cerebral cortical membranes
Details: Rat Cerebral Cortex membranes; 0.5 nM 3H-FNZ; means of 3-5 independent determinations; read-out: Ki^b
Method: Adult male Wistar rats weighing 250g were used for biochemical experiments.
Membrane preparations were carried out according to Medina et al. (1990). Briefly, brains were rapidly dissected out on ice and the different structures were homogenized in 10 volumes of 0.32 M sucrose and centrifuged at 900 x g for 10 min. The resulting supernatant was centrifuged at 100,000 x g for 30 min and the pellet washed twice in 25mM Tris HCl buffer pH 7.4 at 100,000 x g for 30 min,and stored at-20°C until used.
Binding affinities to BDZ-Rs were determined by the ability of the compounds to inhibit Hoffman-La Roche ^3H-flunitrazepam (^3H-FNZ) binding to extensively washed rat cerebal cortical membranes following the method as described by Levi de Stein, M. et al., Mol. Brain Res (1989),5, pp 9-15.
In brief, for each assay, triplicate samples of the membranes, containing 0.2 to 0.4 mg protein were suspended in a final volume of 1 ml of 0.25 mM Tris-HCl buffer, pH 7.3.
The incubation was carried out at 4°C for 60 min with 0.5 nM ^3H-FNZ. To study the binding saturation, a range of 0.3 to 10 nM ^3H-FNZ was used. Non-specific binding was determined in parallel incubations in the presence of 3µM FNZ, and represented 5-15% of total. The assays were terminated by filtration under vacuum through Whatman GF/A glass-fiber filters, and three washes with 3mL each of incubation medium. Filters were dried and counted after the addition of 5 mL of 2,5-diphenyloxazole/xylene as scintillation fluid.
The competition curves were analyzed using Graph-Pad Prism software.
Figures 1-5 show representative displacement curves of [^3H] flunitrazepam (0.5 nM) binding by different flavones to washed crude synaptosomal membranes from rat cerebral cortex.

| Compound | Ki [nM] |
| --- | --- |
| O=c1cc(-c2ccccc2)oc2ccc([N+](=O)[O-])cc12 [Compound A1, 6-nitroflavone] | 275 |
| O=c1cc(-c2cccc(Cl)c2)oc2ccccc12 [Compound A2, 3'-chloroflavone] | 614 |
| O=c1cc(-c2cccc(Br)c2)oc2ccccc12 [Compound A3, 3'-bromoflavone] | 413 |
| O=c1cc(-c2cccc(Br)c2)oc2ccc(Br)cc12 [Compound A4, 6,3'-dibromoflavone] | 19 |
| O=c1cc(-c2cccc(Br)c2)oc2ccc([N+](=O)[O-])cc12 [Compound A5, 6-nitro-3'-bromoflavone] | 25 |
| O=c1cc(-c2ccccc2)oc2ccccc12 [Flavone 6, Flavone, reference compound] | 1000 |

Same assay, conditions: mean ± SEM from displacement curves of [3H] flunitrazepam binding to rat synaptosomal membranes; read-out: Ki

| Compound | Ki [nM] |
| --- | --- |
| O=c1cc(-c2ccccc2)oc2ccc([N+](=O)[O-])cc12 [Compound A1, 6-nitroflavone] | 275 ± 41.1 |
| O=c1cc(-c2cccc(Cl)c2)oc2ccccc12 [Compound A2, 3'-chloroflavone] | 614 ± 32.7 |
| O=c1cc(-c2cccc(Br)c2)oc2ccccc12 [Compound A3, 3'-bromoflavone] | 414 ± 46 |
| O=c1cc(-c2cccc(Br)c2)oc2ccc(Br)cc12 [Compound A4, 6,3'-dibromoflavone] | 18.6 ± 2.18 |
| O=c1cc(-c2cccc(Br)c2)oc2ccc([N+](=O)[O-])cc12 [Compound A5, 6-nitro-3'-bromoflavone] | 25.2 ± 2.46 |

Same assay, conditions: single representative displacement curve (Figures 1-5); [3H] flunitrazepam 0.5 nM; washed crude synaptosomal membranes from rat cerebral cortex; read-out: Ki

| Compound | Ki [nM] |
| --- | --- |
| O=c1cc(-c2ccccc2)oc2ccc([N+](=O)[O-])cc12 [Compound A1, 6-nitroflavone] | 315 |
| O=c1cc(-c2cccc(Cl)c2)oc2ccccc12 [Compound A2, 3'-chloroflavone] | 665 |
| O=c1cc(-c2cccc(Br)c2)oc2ccccc12 [Compound A3, 3'-bromoflavone] | 427 |
| O=c1cc(-c2cccc(Br)c2)oc2ccc(Br)cc12 [Compound A4, 6,3'-dibromoflavone] | 22.7 |
| O=c1cc(-c2cccc(Br)c2)oc2ccc([N+](=O)[O-])cc12 [Compound A5, 6-nitro-3'-bromoflavone] | 21.8 |
